Laboratory results taken from US5002886A, “Oxidoreductase and the preparation thereof” (British Gas PLC, priority 1986, dated 1991).

System: oxidoreductase
Assay: Michaelis constants (Dixon and Webb method, Lineweaver-Burke plots)
Format: biochemical, Microbacterium SP. (NCIB 12048)
Conditions: two substrate enzyme; calculated from primary Lineweaver-Burke plots
Procedure: The Michaelis constants (K^m) for NAD^+ and 1,2-ethanediol were calculated using the method described by Dixon, M and Webb, E.C. ("Enzymes", Longman Group Limited, 1964 pp. 84-86) for two substrate enzymes, based on data from primary plots constructed by the Lineweaver-Burke technique.

## OCCO [Monoethylene Glycol, 1,2-ethanediol]
  Km: ~480 µM

## NC(=O)c1ccc[n+]([C@@H]2O[C@H](COP(=O)([O-])OP(=O)(O)OC[C@H]3O[C@@H](n4cnc5c(N)ncnc54)[C@H](O)[C@@H]3O)[C@@H](O)[C@H]2O)c1 [NAD^+, nicotinamide adenenine dinucleotide]
  Km: ~330 µM
